Laboratory results from patent US11919878B1, “9-(2-hydroxypyridin-3-yl)-10-(2-phenylethyl)-3,3,6,6-tetramethyl-3,4,6,7,9,10-hexahydroacridine1,8(2H,5H)-dione as an antimicrobial compound” (KING FAISAL UNIVERSITY, priority 2023, dated 2024).

Legend:
Experiment in all cases: Antimicrobial screening, agar dilution
Type in all cases: cell-based
Conditions in all cases: after 10, 20, 40 and 60 minutes at all dilutions 1:100, 1:200, 1:400, 1:800
Staphylococcus aureus = tested on: Staphylococcus aureus
Method: (§1) The antibacterial properties of the synthesized compound compound (9-(2-hydroxypyridin-3-yl)-10-(2-phenylethyl)-3,3,6,6-tetramethyl-3,4,6,7,9,10-hexahydroacridine1,8(2H,5H)-dione) were studied by the method of agar dilution. Test solutions of each compound was prepared in concentration of 1% using dimethylformamide as a solvent then they are diluted in physiological solution to obtain the final experimental dilutions 1:100, 1:200, 1:400, 1:800. The effect of these substances are compared with furacillin in a controllable study. The testing microbes used were gram positive bacteria Staphylococcus aureus, gram negative bacteria Pseudomonas aeruginosa and Escherichia coli and Candida albicans fungus. The experiments used for this survey were meat-pentonlu agar (EPA) for cultivation of bacteria and Saburo enviromnent for the fungus. Each experiment used 1 mL of test solution on each plate […]. Two drops of emulsified with microbes feel were added. All experimental samples were taken from the agar after 10, 20, 40, 60 minutes in the environment on the basis of Patrk planted. The bacteria were cultivated at a temperature: of 37° C for 1 day and the mushroom was kept in a thermostat for […] at a temperature of 28° C. Then results were checked.

Pseudomonas aeruginosa = tested on: Pseudomonas aeruginosa
Method: as §1

Escherichia coli = tested on: Escherichia coli
Method: as §1

Candida albicans = tested on: Candida albicans
Method: as §1

Measured: inhibition activity (in words)

CC1(C)CC(=O)C2=C(C1)N(CCc1ccccc1)C1=C(C(=O)CC(C)(C)C1)C2c1cccnc1O [9-(2-hydroxypyridin-3-yl)-10-(2-phenylethyl)-3,3,6,6-tetramethyl-3,4,6,7,9,10-hexahydroacridine1,8(2H,5H)-dione]
highest inhibition activity: all assays above
